# Experimental data taken from US9920088B2, “Triterpene derivative and its anti-influenza use” (Peking University, priority 2012, dated 2018).
# Where two headings read alike, the source gives them in different places.
# How the values were obtained:
# [1] = tested on: A/LiaoNing-ZhenXing/1109/2010(H1N1); experiment: CPE reduction assay, LN/1109 (H1N1); format: cell-based; conditions: Influenza A virus
# [2] = tested on: A/HuNan-ZhuHui/1222/2010 (H3N2); experiment: CPE reduction assay, HN/1222 (H3N2); format: cell-based; conditions: Influenza A virus
Compound,EC50 ([1]; read-out: EC50) [µM],EC50 ([2]; read-out: EC50) [µM],EC50 [1] [µM],EC50 [2] [µM]
"NC12CC3CC(CC(C3)C1)C2 [Amantadine, amantadine, reference compound]",0.44 ± 0.14,> 200,–,–
"CC1(C)CC[C@]2(C(=O)O[C@H]3OC(CO)[C@@H](O)C(O)C3O)C(O)C[C@]3(C)C(=CC[C@@H]4[C@@]5(C)CC[C@H](O)C(C)(C)[C@@H]5CC[C@]43C)[C@@H]2C1 (stereo partly drawn) [Compound Q9, 3β,16α-dihydroxy-olean-12-en-28-oic acid-28-O-(β-D-galactoside)]",17.8 ± 12.6,25.6 ± 9.14,–,–
"CC1(C)CC[C@@]2(C(=O)N[C@H]3OC(CO)[C@@H](O)C(O)C3O)C(C1)C1=CCC3[C@@]4(C)CC[C@H](O)C(C)(C)C4CC[C@@]3(C)[C@]1(C)C[C@H]2O (stereo partly drawn) [Compound Y2, 3β,16α-dihydroxy-olean-12-en-28-oic acid-28-N-(β-D-galactoside)]",> 22.2,> 22.2,–,–
"CC(=O)OCC1O[C@H](NC(=O)[C@]23CCC(C)(C)CC2C2=CCC4[C@@]5(C)CC[C@H](O)C(C)(C)C5CC[C@@]4(C)[C@]2(C)CC3)C(OC(C)=O)C(OC(C)=O)[C@@H]1OC(C)=O (stereo partly drawn) [Compound Y5, 3β-hydroxy-olean-12-en-28-oic acid-28-N-(2,3,4,6-tetra-O-acetyl-β-D-galactoside)]",6.58 ± 1.17,3.18 ± 0.08,–,–
"CCOC(=O)C1=C[C@@H](OC(CC)CC)[C@H](NC(C)=O)[C@@H](N)C1 [OSV-P, oseltamivir phosphate, reference compound]",> 200,8.75 ± 4.41,–,–
"NC(=O)c1ncn([C@@H]2O[C@H](CO)[C@@H](O)[C@H]2O)n1 [RBV, ribavirin, reference compound]",–,–,5.75 ± 0.35,3.56 ± 0.24
